What is called IC50 is the point on the concentration scale where inhibition reaches its midpoint.

The structures appear in SMILES notation.

This is an account of results in patent US20140187594A1, “DIPHENYL ETHER COMPOUNDS FOR THE TREATMENT OF LIVER, LUNG DISORDERS, DIABETIC COMPLICATIONS AND CARDIOVASCULAR DISEASES” (ORCHID CHEMICALS AND PHARMACEUTICALS LTD, priority 2010, published 2014).

For assay [1], the target named is T1, Rat lens Aldose reductase (Rattus norvegicus, UniProt P07943).
T1 construct: Rat lens Aldose reductase is used; from tissue; host or cells: rat lens
Kind of assay: Aldose reductase inhibitory activity. It counts as biochemical. The settings on record: rat lens enzyme, 0.2 mM NADPH, pH 6.2, 25° C. The method, then: Rat lens Aldose reductase is used. Test compound and/or vehicle is preincubated with 3000 μg/ml enzyme (J. Enzyme Inhib. 1993, 7, 249-256; Biol. Pharm. Bull. 1994, 17, 458-459) and 0.2 mM NADPH in phosphate buffer pH 6.2 for 15 minutes at 25° C. The reaction is initiated by addition of 10 mM DL-glyceraldehyde and incubated for another 20 minutes. Determination of the amount of NADPH remained is read spectrophotometrically. Compounds are screened at 10 μM. Since enzyme activity may change from lot to lot, the concentration used will be adjusted if necessary.

Assay [2] concerns IL-6. Kind of assay: LPS induced serum IL-6 in vivo. As to conditions: 50 mg/kg/day oral, 10 days, LPS 400 μg/kg IP, FIG. 40. Also noted: species or system mice. From the text: (§1) Based on the results obtained in the in-vitro studies, it can be concluded that Compounds A, B and C are moderately potent inhibitors of Aldose Reductase. […] At the end of the assay, cell lysates were probed with anti iNOS antibody. Compound of formula (A) inhibits the iNOS production in these cells (FIG. 38). […] Since iNOS is implicated in the pathology of diabetic complications, it is anticipated that Compound of formula (A) will have a protective effect in the development of neovascularization contributed by elevated iNOS. Inhibits LPS induced TNF-α and IL-6 Inhibition In Vivo: This study was undertaken when the mice are at 10-11 weeks in age. On Day 0 their body weights were measured and they were assigned to two groups of 6 mice each to get similar average group body weights. They were orally administered with either vehicle (deionized water, Group 1) or Compound of formula (A) (50 mg/kg; Group 2) daily between 9:30 and 10:30 AM for 10 days. The body weights were measured on day 3, 7 and 10 of the study before administration of vehicle or drug. On Day 10, the mice were administered LPS at 400 μg/kg, IP. After 1 hour they were orally administered with either vehicle or Compound of formula (A). […]
Serum IL-6 concentration for each group of mice is determined using the Quantikine Mouse IL-6 Immunoassay kit. […] The optical density of each well was read at 450 nm Microplate Reader (FIG. 40).

Assay [3] concerns TNF-α. Kind of assay: LPS induced serum TNF-α in vivo. Also noted: species or system mice. As to conditions: 50 mg/kg/day oral, 10 days, LPS 400 μg/kg IP, FIG. 39.
Description: as §1
Serum TNF-α concentration for each group of mice is determined using the Quantikine. […] The optical density of each well was read at 450 nm using the Microplate Reader (FIG. 39).

In assay [4] the test system is iNOS. Kind of assay: iNOS inhibition in LPS challenged cells (anti iNOS antibody). It counts as cell-based. As to conditions: 30 μM, one hour preincubation, LPS 1 μg/mL for 6 hours, FIG. 38.
Description: as §1, with “(A). After another 90 minutes, the mice were euthanized by carbon dioxide asphyxiation. Blood was collected by cardiac puncture and was processed to obtain serum.” for “(A).”

Assay [5] deals with bleomycin induced lung fibrosis. The assay is described as follows: Bleomycin induced lung fibrosis (prophylactic). It counts as in vivo, C57BL/6 mice. The settings on record: 100 mg/kg p.o., 7 days before and 14 days after bleomycin; FIGS. 26 & 27. Here is the method: Female C57BL/6 mice were used in this study. Animals were divided into four groups based on their body weight. To induce fibrosis bleomycin was administered at 0.1 U/animal (volume 50 μL) intratracheally to Group II (Disease control), Group III and Group IV, whereas Group I (Normal control) received only saline. The bleomycin challenged Group III and Group IV animals were treated with pentoxifylline (20 mg/kg p.o.) and compound of formula (A) (100 mg/kg p.o.) respectively, whereas Group I and the bleomycin challenged Group II animals received vehicle for 7 days before and 14 days after bleomycin administration. Body weight, feed and liquid intake and mortality rate were recorded. At the end of the study, animals were bled and plasma was stored in deep freezer (−80° C.) for biochemical parameters estimation. Then, the animals were sacrificed and lung tissue harvested and weighed. Right lung tissue was stored in deep freezer (−80° C.) for expression study and drug concentration analysis. The left lung tissues was fixed in formalin (10%) by slow infusion, then immersed and preserved in formalin (10%) for histopathology examination.

In assay [1], `COC(=O)[C@@H](N)Cc1ccc(Oc2ccc(CC3SC(=O)NC3=O)cc2)cc1` (stereo partly drawn) [Compound of formula (A), Methyl(2S)-2-amino-3-(4-{4-[(2,4-dioxo-1,3-thiazolidin-5-yl)methyl]phenoxy}phenyl)propanoate] returned an IC50 of 4.07 µM. Also, the “Serum IL-6 level” value in assay [2] is given as “reduction”. The “Serum TNF-α level” value in assay [3] is listed as “reduction in TNF-α”. The iNOS production entry in assay [4] is on record as “potent inhibitor of iNOS with activity superior to Rosiglitazone at equal concentrations”. Moreover, the “lung fibrosis formation (histopathology)” value in assay [5] was “significantly prevents fibrosis formation”.
